The numbers were not newly measured in patent publication US12569513B1, “Stable, highly pure L-cysteine compositions for injection and methods of use” (priority 2019, dated 2026), which cites them from elsewhere.

Values after ≈ are worked out from the molar mass of the structure shown.

As for `N[C@@H](CS)C(=O)O` [L-Cysteine, 2-Amino-3-sulfhydrylpropanoic acid], the solubility is listed as 50 mg/mL (≈ 413 mM).
